How the values were obtained:
[1] = target: T1, CDK2/CycE (Homo sapiens, UniProt P24941); experiment: CDK2/CycE kinase assay (TR-FRET, 2 mM ATP); format: biochemical; details: 2 mM ATP (high ATP); median; read-out: CDK2/CyclinE, 2 mM ATP (high ATP), IC50 (median)
T1 construct: purchased ProQinase GmbH (Freiburg, Germany); host or cells: insect cells (Sf9)
Outline: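 Biotin-peptide phosphorylation (0.75 µM substrate, 2 mM ATP final, 25 min, 22 °C) by Sf9-expressed GST-CDK2/GST-CycE, after a 15-min compound pre-binding step. Inhibition scaled between enzyme-free (100%) and uninhibited (0%) wells.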

[2] = target: T2, CYCLIN K (nuclear staining in CAL-120 cells) (Homo sapiens, UniProt O75909); experiment: CYCLIN K nuclear protein level: immunofluorescence high content analysis (CAL-120); format: cell-based; details: 24 h, 50% reduction of nuclear CCNK staining intensity, median, read-out: CYCLIN K degradation IF, DC50-[mol/l] (median)
T2 construct: endogenous in cells; host or cells: CAL-120 human breast cancer cells (DSMZ ACC 459)
Outline: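 Readout is automated confocal image analysis of nuclear cyclin K immunofluorescence (Hoechst nuclei) after PFA fixation. Cells were CAL-120, exposed to compound dose-response 24 h at 37 °C; values are DC50 for halving nuclear CCNK signal relative to DMSO and control wells.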

[3] = target: T3, CDK12 (nuclear staining in CAL-120 cells) (Homo sapiens, UniProt Q9NYV4); experiment: CDK12 nuclear protein level: immunofluorescence/high content analysis (CAL-120); format: cell-based; details: for DC50: CAL-120 cells, 24 h, immunofluorescence, 50% reduction of nuclear CDK12 staining intensity, median, read-out: CDK12 degradation IF, DC50- [mol/l] (median); for (IC50 CDK12 high ATP) to (Degradation DC50 CDK12) ratio: ratio of IC50 CDK12 high ATP kinase assay to DC50 CDK12 degradation (IF, CAL-120)
T3 construct: endogenous in cells; host or cells: CAL-120 human breast cancer cells (DSMZ ACC 459)
Outline: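 DC50 is the degrader concentration that halves nuclear CDK12 immunofluorescence relative to controls, measured by high-content imaging. CAL-120 cells were exposed to compound for 24 h at 37 °C before PFA fixation, and signal was normalized to DMSO and control wells.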

T3 sequence (Q9NYV4 whole entry): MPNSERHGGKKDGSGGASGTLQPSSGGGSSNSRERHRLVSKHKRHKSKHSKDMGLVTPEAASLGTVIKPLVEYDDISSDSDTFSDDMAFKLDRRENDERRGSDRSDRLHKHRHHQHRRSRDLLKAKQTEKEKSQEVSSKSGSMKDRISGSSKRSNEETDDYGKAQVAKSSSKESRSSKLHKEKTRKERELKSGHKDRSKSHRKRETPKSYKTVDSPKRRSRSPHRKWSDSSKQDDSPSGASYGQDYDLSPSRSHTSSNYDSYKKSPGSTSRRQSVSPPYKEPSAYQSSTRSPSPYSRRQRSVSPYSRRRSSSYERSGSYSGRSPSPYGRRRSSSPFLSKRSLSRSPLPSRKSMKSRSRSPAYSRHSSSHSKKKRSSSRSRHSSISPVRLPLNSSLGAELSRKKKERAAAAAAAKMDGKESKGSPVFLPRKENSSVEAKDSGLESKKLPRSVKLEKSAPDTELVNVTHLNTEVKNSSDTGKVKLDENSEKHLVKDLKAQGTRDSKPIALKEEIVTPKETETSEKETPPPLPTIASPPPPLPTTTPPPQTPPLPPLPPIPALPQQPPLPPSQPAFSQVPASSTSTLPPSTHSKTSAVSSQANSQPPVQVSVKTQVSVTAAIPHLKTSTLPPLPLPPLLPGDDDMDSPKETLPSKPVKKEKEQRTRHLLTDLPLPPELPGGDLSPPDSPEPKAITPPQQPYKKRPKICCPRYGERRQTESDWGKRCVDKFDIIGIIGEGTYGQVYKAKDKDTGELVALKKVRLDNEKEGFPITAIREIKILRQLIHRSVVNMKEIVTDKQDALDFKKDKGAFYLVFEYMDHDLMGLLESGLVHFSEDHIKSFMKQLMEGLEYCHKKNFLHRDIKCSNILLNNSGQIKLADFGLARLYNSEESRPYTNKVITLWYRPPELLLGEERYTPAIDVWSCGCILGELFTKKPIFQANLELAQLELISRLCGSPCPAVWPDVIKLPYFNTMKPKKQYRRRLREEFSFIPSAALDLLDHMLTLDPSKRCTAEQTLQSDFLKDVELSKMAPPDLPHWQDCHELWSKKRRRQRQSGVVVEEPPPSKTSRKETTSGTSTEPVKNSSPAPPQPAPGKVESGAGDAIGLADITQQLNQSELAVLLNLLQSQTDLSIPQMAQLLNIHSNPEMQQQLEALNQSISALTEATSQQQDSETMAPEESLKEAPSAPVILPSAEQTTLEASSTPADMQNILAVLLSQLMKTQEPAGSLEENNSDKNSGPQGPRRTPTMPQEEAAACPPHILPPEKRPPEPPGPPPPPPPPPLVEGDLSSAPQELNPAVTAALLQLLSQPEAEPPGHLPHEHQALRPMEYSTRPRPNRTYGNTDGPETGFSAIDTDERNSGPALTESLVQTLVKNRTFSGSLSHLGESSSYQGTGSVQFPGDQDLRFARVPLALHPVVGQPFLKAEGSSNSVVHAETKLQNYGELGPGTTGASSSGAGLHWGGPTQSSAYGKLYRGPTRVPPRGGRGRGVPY
T3 sequence (O75909 whole entry partner): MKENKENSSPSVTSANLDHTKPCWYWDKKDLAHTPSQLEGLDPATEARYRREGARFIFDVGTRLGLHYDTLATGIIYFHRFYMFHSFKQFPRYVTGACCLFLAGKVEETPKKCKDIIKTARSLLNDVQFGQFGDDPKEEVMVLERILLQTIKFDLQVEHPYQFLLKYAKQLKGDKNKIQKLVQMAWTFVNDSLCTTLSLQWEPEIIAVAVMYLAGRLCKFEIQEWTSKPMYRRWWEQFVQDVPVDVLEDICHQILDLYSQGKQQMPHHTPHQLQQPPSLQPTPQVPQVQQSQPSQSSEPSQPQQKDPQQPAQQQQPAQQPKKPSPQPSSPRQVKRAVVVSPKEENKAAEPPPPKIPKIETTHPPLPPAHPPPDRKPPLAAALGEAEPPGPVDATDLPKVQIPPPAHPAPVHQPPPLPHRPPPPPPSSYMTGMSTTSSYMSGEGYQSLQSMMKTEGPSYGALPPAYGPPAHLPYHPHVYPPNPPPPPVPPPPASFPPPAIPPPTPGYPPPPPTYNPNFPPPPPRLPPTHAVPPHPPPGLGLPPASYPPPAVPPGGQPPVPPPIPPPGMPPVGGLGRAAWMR
T2 sequence (O75909 whole entry): as the sequence (O75909 whole entry partner) above
T2 sequence (Q9NYV4 whole entry partner): as the sequence (Q9NYV4 whole entry) above

IC50 [1] [nM]	DC50 [2] [nM]	DC50 [3] [nM]	(IC50 CDK12 high ATP) to (Degradation DC50 CDK12) ratio [3]	SMILES
2230	2.77	4.34	998	OC[C@H]1CCCCN1c1nc(NCc2nnc(-c3ccccc3)[nH]2)n2ncc(Br)c2n1 [Example 71, [(2R)-1-(8-bromo-4-{[(5-phenyl-4H-1,2,4-triazol-3-yl)methyl]amino}pyrazolo[1,5-a][1,3,5]triazin-2-yl)piperidin-2-yl]methanol]
4350	11.4	10	55	Clc1ccc(-c2cnc(CNc3nc(N4CCOCC4)nc4c(Br)cnn34)[nH]2)cc1 [Example 72, 8-bromo-N-{[5-(4-chlorophenyl)-1H-imidazol-2-yl]methyl}-2-(morpholin-4-yl)pyrazolo[1,5-a][1,3,5]triazin-4-amine]
6090	0.735	5.15	129	C[C@@H]1CN(c2nc(NCc3nc4ccccc4[nH]3)n3ncc(Br)c3n2)C[C@H](C)O1 [Example 73, N-[(1H-benzimidazol-2-yl)methyl]-8-bromo-2-[(2R,6S)-2,6-dimethylmorpholin-4-yl]pyrazolo[1,5-a][1,3,5]triazin-4-amine]
18200		57.4		FC(F)(F)Oc1ccccc1-c1nnc(CNc2nc(N3CCOCC3)nc3c(Br)cnn23)[nH]1 [Example 74, 8-bromo-2-(morpholin-4-yl)-N-({5-[2-(trifluoromethoxy)phenyl]-4H-1,2,4-triazol-3-yl}methyl)pyrazolo[1,5-a][1,3,5]triazin-4-amine]
2500	8.7	7.38	>511	Fc1ccccc1-c1nnc(CNc2nc(N3CCOCC3)nc3c(Br)cnn23)[nH]1 [Example 75, 8-bromo-N-{[5-(2-fluorophenyl)-4H-1,2,4-triazol-3-yl]methyl}-2-(morpholin-4-yl)pyrazolo[1,5-a][1,3,5]triazin-4-amine]
11100		116	87	COC(=O)C1CCN(c2nc(NCc3nnc(-c4ccccc4)[nH]3)n3ncc(Br)c3n2)CC1 [Example 77, methyl 1-(8-bromo-4-{[(5-phenyl-4H-1,2,4-triazol-3-yl)methyl]amino}pyrazolo[1,5-a][1,3,5]triazin-2-yl)piperidine-4-carboxylate]
10500		31.8	518	O[C@@H]1CCN(c2nc(NCc3nc4ccccc4[nH]3)n3ncc(Br)c3n2)C1 [Example 202, (3R)-1-(4-{[(1H-benzimidazol-2-yl)methyl]amino}-8-bromopyrazolo[1,5-a][1,3,5]triazin-2-yl)pyrrolidin-3-ol]
> 20000	0.972			CN1CCN(c2nc(NCc3nc4cc(Cl)c(Cl)cc4[nH]3)n3ncc(C4CC4)c3n2)CC1 [Example 305, 8-cyclopropyl-N-[(5,6-dichloro-1H-benzimidazol-2-yl)methyl]-2-(4-methylpiperazin-1-yl)pyrazolo[1,5-a][1,3,5]triazin-4-amine]
> 20000		6.81	239	Fc1ccc2[nH]c(CNc3nc(N4CCOCC4)nc4c(-c5cnn(C(F)F)c5)cnn34)nc2c1F [Example 422, N-[(4,5-difluoro-1H-benzimidazol-2-yl)methyl]-8-[1-(difluoromethyl)-1H-pyrazol-4-yl]-2-(morpholin-4-yl)pyrazolo[1,5-a][1,3,5]triazin-4-amine]

Continued, molecule first:

SMILES	IC50 [1] [nM]	DC50 [2] [nM]	DC50 [3] [nM]	(IC50 CDK12 high ATP) to (Degradation DC50 CDK12) ratio [3]
CC(C)c1cnn2c(NCc3nc4ccccc4[nH]3)nc(N3CCOCC3)nc12 [Example 1, N-[(1H-benzimidazol-2-yl)methyl]-2-(morpholin-4-yl)-8-(propan-2-yl)pyrazolo[1,5-a][1,3,5]triazin-4-amine]	5270	11.1	11.1	537
CC(C)c1cnn2c(NCc3nc4ccccc4[nH]3)nc(N3CCN(C)CC3)nc12 [Example 2, N-[(1H-benzimidazol-2-yl)methyl]-2-(4-methylpiperazin-1-yl)-8-(propan-2-yl)pyrazolo[1,5-a][1,3,5]triazin-4-amine]	11100	5.04	8.46	>2365
CC(C)c1cnn2c(NCc3nc4ccccc4[nH]3)nc(N(C)C)nc12 [Example 3, N^4-[(1H-benzimidazol-2-yl)methyl]-N^2,N^2-dimethyl-8-(propan-2-yl)pyrazolo[1,5-a][1,3,5]triazine-2,4-diamine]	> 20000		94.5	>212
CC(C)c1cnn2c(NCc3nc4ccccc4[nH]3)nc(N3CCOC(C)(C)C3)nc12 [Example 12, N-[(1H-benzimidazol-2-yl)methyl]-2-(2,2-dimethylmorpholin-4-yl)-8-(propan-2-yl)pyrazolo[1,5-a][1,3,5]triazin-4-amine]	> 16500		42.7	399
COC1CCN(c2nc(NCc3nc4ccccc4[nH]3)n3ncc(Br)c3n2)CC1 [Example 62, N-[(1H-benzimidazol-2-yl)methyl]-8-bromo-2-(4-methoxypiperidin-1-yl)pyrazolo[1,5-a][1,3,5]triazin-4-amine]	6450	2.27	10	569
COC(=O)C1CCN(c2nc(NCc3nc4ccccc4[nH]3)n3ncc(Br)c3n2)CC1 [Example 63, methyl 1-(4-{[(1H-benzimidazol-2-yl)methyl]amino}-8-bromopyrazolo[1,5-a][1,3,5]triazin-2-yl)piperidine-4-carboxylate]	6490	4.09	20.7	556
Brc1cnn2c(NCc3nnc(-c4ccccc4)[nH]3)nc(N3CCCC3)nc12 [Example 64, 8-bromo-N-[(5-phenyl-4H-1,2,4-triazol-3-yl)methyl]-2-(pyrrolidin-1-yl)pyrazolo[1,5-a][1,3,5]triazin-4-amine]	4660	4.89	12.5	440
Brc1cnn2c(NCc3nnc(-c4ccccc4)[nH]3)nc(N3CC4(COC4)C3)nc12 [Example 65, 8-bromo-2-(2-oxa-6-azaspiro[3.3]heptan-6-yl)-N-[(5-phenyl-4H-1,2,4-triazol-3-yl)methyl]pyrazolo[1,5-a][1,3,5]triazin-4-amine]	> 20000	16.4	4.15	245
Fc1ccc(-c2cnc(CNc3nc(N4CCOCC4)nc4c(Br)cnn34)[nH]2)cc1 [Example 66, 8-bromo-N-{[5-(4-fluorophenyl)-1H-imidazol-2-yl]methyl}-2-(morpholin-4-yl)pyrazolo[1,5-a][1,3,5]triazin-4-amine]	2300	2.45	130	>44
OCC1COCCN1c1nc(NCc2nc3ccccc3[nH]2)n2ncc(Br)c2n1 (stereo not drawn) [Example 67, (4-{4-[(1H-benzimidazol-2-ylmethyl)amino]-8-bromopyrazolo[1,5-a][1,3,5]triazin-2-yl}morpholin-3-yl)methanol]	1860	0.814	3.77	727
CC1(C)CN(c2nc(NCc3nnc(-c4ccccc4)[nH]3)n3ncc(Br)c3n2)CCO1 [Example 68, 8-bromo-2-(2,2-dimethylmorpholin-4-yl)-N-[(5-phenyl-4H-1,2,4-triazol-3-yl)methyl]pyrazolo[1,5-a][1,3,5]triazin-4-amine]	10600	2.85	13.3	415
Clc1ccccc1-c1nnc(CNc2nc(N3CCOCC3)nc3c(Br)cnn23)[nH]1 [Example 69, 8-bromo-N-{[5-(2-chlorophenyl)-4H-1,2,4-triazol-3-yl]methyl}-2-(morpholin-4-yl)pyrazolo[1,5-a][1,3,5]triazin-4-amine]	12100		84.5	>68
OC[C@@H]1CCCCN1c1nc(NCc2nnc(-c3ccccc3)[nH]2)n2ncc(Br)c2n1 [Example 70, [(2S)-1-(8-bromo-4-{[(5-phenyl-4H-1,2,4-triazol-3-yl)methyl]amino}pyrazolo[1,5-a][1,3,5]triazin-2-yl)piperidin-2-yl]methanol]	1540	11.7	7.9	79

Reference: patent US20230117034A1, “PYRAZOLOTRIAZINES” (Bayer Aktiengesellschaft, priority 2019, published 2023)
